# Experimental data as given in ChEMBL document CHEMBL1143919, “Sugar Chips immobilized with synthetic sulfated disaccharides of heparin/heparan sulfate partial structure” (Bioorg Med Chem Lett, 2008).
# Columns and labels:
# Fibronectin = Fibronectin (Homo sapiens, UniProt P02751); test: Binding affinity to fibronectin using surface plasmon resonance imaging sensor method
# [1] = Binding affinity to human recombinant von Willebrand factor A1 domain using surface plasmon resonance imaging sensor
# Sequence of Fibronectin (P02751 whole entry, the tested form may be a part): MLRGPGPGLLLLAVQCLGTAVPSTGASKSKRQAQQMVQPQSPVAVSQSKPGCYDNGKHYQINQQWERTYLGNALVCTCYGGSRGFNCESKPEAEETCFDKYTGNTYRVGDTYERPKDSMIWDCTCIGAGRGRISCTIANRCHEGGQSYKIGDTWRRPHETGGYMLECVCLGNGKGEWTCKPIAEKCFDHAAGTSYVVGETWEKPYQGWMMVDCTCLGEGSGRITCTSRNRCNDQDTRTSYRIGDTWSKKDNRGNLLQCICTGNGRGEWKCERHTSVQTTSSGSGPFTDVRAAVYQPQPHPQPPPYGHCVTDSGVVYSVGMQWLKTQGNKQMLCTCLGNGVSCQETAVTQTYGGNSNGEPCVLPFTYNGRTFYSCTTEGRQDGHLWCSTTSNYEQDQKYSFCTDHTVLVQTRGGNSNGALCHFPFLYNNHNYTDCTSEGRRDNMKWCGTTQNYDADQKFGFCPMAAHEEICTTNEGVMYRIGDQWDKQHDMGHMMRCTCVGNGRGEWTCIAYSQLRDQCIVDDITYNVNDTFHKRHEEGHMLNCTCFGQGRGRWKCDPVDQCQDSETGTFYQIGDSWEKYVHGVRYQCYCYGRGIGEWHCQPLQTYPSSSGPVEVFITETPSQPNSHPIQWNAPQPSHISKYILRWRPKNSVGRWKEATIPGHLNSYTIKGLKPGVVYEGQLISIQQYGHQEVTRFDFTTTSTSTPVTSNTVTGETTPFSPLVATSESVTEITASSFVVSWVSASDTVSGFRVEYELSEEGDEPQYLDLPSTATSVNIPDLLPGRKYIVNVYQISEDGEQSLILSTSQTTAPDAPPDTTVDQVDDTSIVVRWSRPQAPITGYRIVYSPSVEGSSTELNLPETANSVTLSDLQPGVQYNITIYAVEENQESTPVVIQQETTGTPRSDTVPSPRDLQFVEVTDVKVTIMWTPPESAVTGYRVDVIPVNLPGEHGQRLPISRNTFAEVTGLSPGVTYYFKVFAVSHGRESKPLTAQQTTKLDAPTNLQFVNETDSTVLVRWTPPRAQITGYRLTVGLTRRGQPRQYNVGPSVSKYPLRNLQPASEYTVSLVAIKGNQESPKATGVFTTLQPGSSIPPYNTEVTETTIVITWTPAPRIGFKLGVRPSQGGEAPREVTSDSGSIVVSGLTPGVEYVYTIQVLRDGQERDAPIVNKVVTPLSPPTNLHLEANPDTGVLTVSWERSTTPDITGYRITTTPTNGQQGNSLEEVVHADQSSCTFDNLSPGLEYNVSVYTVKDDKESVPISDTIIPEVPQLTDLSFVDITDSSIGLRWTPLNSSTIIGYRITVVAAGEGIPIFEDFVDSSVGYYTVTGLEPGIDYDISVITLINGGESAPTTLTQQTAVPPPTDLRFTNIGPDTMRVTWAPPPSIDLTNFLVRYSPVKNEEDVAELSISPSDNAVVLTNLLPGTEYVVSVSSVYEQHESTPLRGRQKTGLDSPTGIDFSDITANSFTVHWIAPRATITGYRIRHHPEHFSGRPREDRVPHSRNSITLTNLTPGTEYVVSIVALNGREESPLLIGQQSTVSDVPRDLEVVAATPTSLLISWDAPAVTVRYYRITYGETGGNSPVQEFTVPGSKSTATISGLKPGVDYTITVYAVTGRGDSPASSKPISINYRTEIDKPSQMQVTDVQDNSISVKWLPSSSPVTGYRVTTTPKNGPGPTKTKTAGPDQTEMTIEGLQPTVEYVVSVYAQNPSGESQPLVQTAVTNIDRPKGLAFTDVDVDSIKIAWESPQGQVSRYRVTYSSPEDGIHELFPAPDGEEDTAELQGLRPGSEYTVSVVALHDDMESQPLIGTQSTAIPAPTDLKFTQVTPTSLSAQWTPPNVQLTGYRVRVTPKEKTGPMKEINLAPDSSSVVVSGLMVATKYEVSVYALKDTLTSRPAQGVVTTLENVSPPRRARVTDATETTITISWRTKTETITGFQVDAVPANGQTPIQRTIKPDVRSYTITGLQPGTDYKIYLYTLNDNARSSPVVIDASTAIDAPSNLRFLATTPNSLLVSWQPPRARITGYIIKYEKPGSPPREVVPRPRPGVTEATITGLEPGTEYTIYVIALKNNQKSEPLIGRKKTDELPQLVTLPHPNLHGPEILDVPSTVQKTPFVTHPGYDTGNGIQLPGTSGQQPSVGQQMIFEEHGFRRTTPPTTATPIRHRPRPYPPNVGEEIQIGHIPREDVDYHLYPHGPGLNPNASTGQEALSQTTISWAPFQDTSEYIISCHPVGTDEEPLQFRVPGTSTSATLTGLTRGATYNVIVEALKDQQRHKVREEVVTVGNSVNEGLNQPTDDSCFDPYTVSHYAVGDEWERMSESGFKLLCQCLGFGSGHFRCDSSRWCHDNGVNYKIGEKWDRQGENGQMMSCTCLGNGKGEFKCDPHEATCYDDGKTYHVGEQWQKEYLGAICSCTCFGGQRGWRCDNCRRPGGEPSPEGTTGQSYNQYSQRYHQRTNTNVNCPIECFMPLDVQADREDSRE
SMILES,Kd (Fibronectin),Kd [1]
CO[C@H]1[C@H](O)[C@@H](NS(=O)(=O)O)[C@@H](O[C@H]2[C@H](O)[C@@H](OS(=O)(=O)O)[C@H](OC[C@@H](O)[C@@H](O)[C@H](O)[C@@H](O)CNc3cccc(NC(=O)CCCCC4CCSS4)c3)O[C@H]2C(=O)O)O[C@@H]1CO (stereo partly drawn),30 nM,900 nM
CO[C@H]1[C@H](O)[C@@H](NS(=O)(=O)O)[C@@H](O[C@H]2[C@H](O)[C@@H](O)[C@H](OC[C@@H](O)[C@@H](O)[C@H](O)[C@@H](O)CNc3cccc(NC(=O)CCCCC4CCSS4)c3)O[C@@H]2C(=O)O)O[C@@H]1COS(=O)(=O)O (stereo partly drawn),6.5 nM,1400 nM
CO[C@H]1[C@H](O)[C@@H](NS(=O)(=O)O)[C@@H](O[C@H]2[C@H](O)[C@@H](OS(=O)(=O)O)[C@H](OC[C@@H](O)[C@@H](O)[C@H](O)[C@@H](O)CNc3cccc(NC(=O)CCCCC4CCSS4)c3)O[C@H]2C(=O)O)O[C@@H]1COS(=O)(=O)O (stereo partly drawn),5.5 nM,1000 nM
CO[C@H]1[C@H](O)[C@@H](NS(=O)(=O)O)[C@@H](O[C@H]2[C@H](O)[C@@H](O)[C@H](OC[C@@H](O)[C@@H](O)[C@H](O)[C@@H](O)CNc3cccc(NC(=O)CCCCC4CCSS4)c3)O[C@@H]2C(=O)O)O[C@@H]1CO (stereo partly drawn),33 nM,4300 nM
